According to patent US20140031283A1, “ANTICANCER FUSION PROTEIN” (ADAMED SP. Z O.O., priority 2011, published 2014):

Tests used:
HCT-116 = conditions: continuous incubation over 72 h, test MTT
Procedure: Data analysis consists in determining IC50 concentration of the protein (in ng/ml), at which the 50% reduction in the number of cells occurs in the population treated compared to control cells. Results were analyzed using GraphPad Prism 5.0 software. […] Cell culture medium was diluted to a defined density (10^4-10^5 cells per 100 μl). Then 100 μl of appropriately diluted cell suspension was applied to a 96-well plate in triplicates. Thus prepared cells were incubated for 24 h at 37° C. in 5% or 10% CO2, depending on the medium used, and then to the cells (in 100 μl of medium) further 100 μl of the medium containing various concentrations of tested proteins were added. […] After incubation of the cells with tested proteins over the period of next 72 hours, which is equivalent to 3-4 times of cell division, the medium with the test protein was added with 20 ml of MTT working solution [5 mg/ml], and incubation was continued for 3 h at 37° C. in 5% CO2. Then the medium with MTT solution was removed, and formazan crystals were dissolved by adding 100 μl of DMSO. After stirring, the absorbance was measured at 570 nm (reference filter 690 nm).
Each experiment represents the average value of at least two independent experiments performed in triplicates.

[1] = test system: human colon cancer HCT116; assay: HCT116 colon cancer xenograft in Crl:SHO-Prkdc^scidHr^hr mice; type: in vivo; conditions: 65 mg/kg i.v., 10 daily applications with a two-day break, 24th day
Procedure: (§1) Antitumor activity of protein preparations was tested in a mouse model of human colon cancer HCT116, human colon cancer Colo205, human colon cancer model SW620, human liver cancer model HepG2, and human lung cancer models NCI-H460 and NCI-H460-Luc2.
(§2) The HCT116 (in mice Crl:SHO-Prkdc^scidHr^hr) were alternatively maintained in McCoy's medium (Hyclone, Logan, Utah, USA) supplemented with 10% fetal calf serum and 2 mM glutamine. On the day of mice grafting, the cells were detached from the support by washing the cells with trypsin (Invitrogen), then the cells were centrifuged at 1300 rpm, 4° C., 8 min., suspended in HBSS buffer (Hanks medium), counted and diluted to the concentration of 25×10^6 cells/ml. SW620 cells were maintained in DMEM (HyClone, Logan, Utah, USA) supplemented with 10% fetal calf serum and 2 mM glutamine. On the day of mice grafting, the cells were detached from the support by washing the cells with trypsin (Invitrogen), then the cells were centrifuged at 1300 rpm, 4° C., 8 min., suspended in HBSS buffer (Hanks medium), counted and diluted to the concentration of 25×10^6 cells/ml.
(§3) Examination of antitumor activity of proteins of the invention was conducted on 7-9 week-old CD-nude (Crl:CD1-Foxn1^nu 1) or 4-6 week-old Crl:SHO-Prkdc^scidHr^hr mice obtained from Charles River Germany. […]

[2] = test system: human colon cancer model SW620; assay: SW620 colon cancer xenograft in Crl:SHO-Prkdc^scidHr^hr mice; type: in vivo; conditions: 30 mg/kg i.v. six times every second day, 31st day
Procedure: as §1, §2, §3

[3] = test system: human colon cancer Colo205; assay: Colo205 colon cancer xenograft in Crl:SHO-Prkdc^scidHr^hr mice; type: in vivo; conditions: 30 mg/kg i.v. six times every second day, 33rd day
Procedure: as §1
The HCT116 (in mice Crl:CD1-Foxn1^nu 1), Colo205, NCI-H460, NCI-H460-Luc2 cells were maintained in RPMI 1640 medium (Hyclone, Logan, Utah, USA) mixed in the ratio of 1:1 with Opti-MEM (Invitrogen, Cat.22600-134) supplemented with 10% fetal calf serum and 2 mM glutamine. On the day of mice grafting, the cells were detached from the support by washing the cells with trypsin (Invitrogen), then the cells were centrifuged at 1300 rpm, 4° C., 8 min., suspended in HBSS buffer (Hanks medium), counted and diluted to the concentration of 25×10^6 cells/ml.
Examination of antitumor activity of proteins of the invention was conducted on 7-9 week-old CD-nude (Crl:CD1-Foxn1^nu 1) or 4-6 week-old Crl:SHO-Prkdc^scidHr^hr mice obtained from Charles River Germany. Mice were kept under specific pathogen-free conditions with free access to food and demineralised water (ad libitum). All experiments on animals were carried in accordance with the guidelines: “Interdisciplinary Principles and Guidelines for the Use of Animals in Research. […]

HCT116 IC50 (HCT-116): 0.02557 mg/L
Substance: rhTRAIL114-281: recombinant human soluble TRAIL, amino acids 114-281 of hTRAIL, used as the comparative reference
tumor growth inhibition (TGI) relative to the control [1]: 38%
tumor growth inhibition (TGI) relative to the control [2]: −9%
tumor growth inhibition (TGI) relative to the control [3]: 18.8%
